Results on 24 compounds are retold here after patent publication US5482967A, “Condensed heterocyclic compounds, their production and use” (Takeda Chemical Industries, Ltd., priority 1992, dated 1996).

The IC50 is the concentration needed to halve the response being measured. A low value points to higher potency.

Counter-ions that a name gives are not always drawn.

The target in the experiment is substance P receptor (Homo sapiens, UniProt P25103). Briefly: Radioligand receptor binding inhibitory assay using receptor from human lymphoblast cells (IM-9), 125I-BHSP. As to conditions: IM-9 receptor, 25° C., 30 minutes. The protocol: The method of A. Margaret et al. [Molecular Pharmacology 42, 458 (1992)] was modified and used. The receptor was prepared from human lymphoblast cells (IM-9). IM-9 cells were grown in 175 cm^2 tissue culture flasks (100 ml×10) at a density approximately 2×10^5 /ml of RPMI 1640 with L-glutamine, 10% (V/V) heat inactivated fetal calf serum, penicillin (100 u/ml), and streptomycin (100 μg/ml) at 37° C. in 5% CO2 /95% air for 3 days. IM-9 cells were obtained by centrifugation at 500×g for 5 minutes at 5° C. The pellet obtained was washed once with phosphate buffer (Flow Laboratories, CAT No. 28-103-05), homogenized using Polytron homogenizer (Kinematika, Germany) in 30 ml of 50 mM Tris-HCl buffer containing 120 mM NaCl, 5 mM KCl, 2 μg/ml phenylmethyl sulfonyl fluoride, and 1 mM ethylenediamine tetra-acetic acid and then centrifuged at 40,000×g for 20 minutes. The residue was washed twice with 30 ml of buffer described above, and preserved frozen (-80° C.).
Sequence of substance P receptor (P25103 whole entry): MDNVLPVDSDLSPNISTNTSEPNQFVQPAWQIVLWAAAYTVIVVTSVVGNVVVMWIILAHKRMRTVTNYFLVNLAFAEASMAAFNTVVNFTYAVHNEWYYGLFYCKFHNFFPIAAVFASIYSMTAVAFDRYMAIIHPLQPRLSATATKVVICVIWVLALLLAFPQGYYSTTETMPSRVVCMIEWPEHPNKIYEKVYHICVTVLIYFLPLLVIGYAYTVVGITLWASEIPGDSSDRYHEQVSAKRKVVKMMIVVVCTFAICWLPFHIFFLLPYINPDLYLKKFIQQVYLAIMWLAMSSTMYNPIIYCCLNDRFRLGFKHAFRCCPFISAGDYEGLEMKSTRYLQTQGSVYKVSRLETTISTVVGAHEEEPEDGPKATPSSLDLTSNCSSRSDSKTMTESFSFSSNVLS
The above specimen was suspended in a reaction buffer (50 mM Tris-HCl buffer (pH 7.4), 0.02% bovine serum albumin, 1 mM phenylmethylsulfonyl fluoride, 2 μg/ml chymostatin, 40 μg/ml bacitracin, 3 mM manganese chloride) at a protein concentration of 1.5 mg/ml and a 100 μl portion of the suspension was used in the reaction. After addition of the sample and 125I-BHSP (0.46 KBq), the reaction was conducted in 0.2 ml of reaction buffer at 25° C. for 30 minutes. The amount of nonspecific binding was determined by adding substance P at a final concentration of 2×10^-6 M. After the reaction, using a cell harvester (290PHD, Cambridge Technology, Inc., England), rapid filtration was carried out through a glass filter (GF/B, Whatman, U.S.A.) to stop the reaction. After washing three times with 250 μl of 50 mM Tris-HCl buffer (pH 7.4) containing 0.02% bovine serum albumin, the radioactivity remaining on the filter was measured with a gamma counter. Before use, the filter was immersed in 0.1% polyethyleneimine for 24 hours and air-dried.
For `Cc1nc2ccccc2c(-c2ccccc2)c1C(=O)N(C)Cc1cc(C(F)(F)F)cc(C(F)(F)F)c1` [Example 267, N-[3,5-Bis(trifluoromethyl)benzyl]-N,2-dimethyl-4-phenyl-3-quinolinecarboxamide], the IC50 came out at 0.68 nM.
In turn, `COc1ccccc1-c1c(C(=O)N(C)Cc2cc(C(F)(F)F)cc(C(F)(F)F)c2)c(=O)oc2ccccc12` [Example 255, N-[3,5-Bis(trifluoromethyl)benzyl]-4-(2-methoxyphenyl)-N-methyl-2-oxo-2H-1-benzopyran-3-carboxamide] showed an IC50 of 1.3 nM.
Consider `COc1ccccc1CNC1CCCn2c1c(-c1ccccc1)c1ccccc1c2=O` (stereo not drawn) [Example 239, 1,2,3,4-Tetrahydro-1-(2-methoxybenzylamino)-6-oxo-11-phenyl-6H-benzo[b]quinolizine], for which the IC50 is 80 nM.
Under `Cc1ccccc1-c1c(C(=O)NCc2cc(C(F)(F)F)cc(C(F)(F)F)c2)n(C)c(=O)c2ccccc12` [Example 101, N-[3,5-Bis(trifluoromethyl)benzyl]-1,2-dihydro-2-methyl-4-(2-methylphenyl)-1-oxo-3-isoquinolinecarboxamide] stands 2.5 nM; under `COc1nc2ccccc2c(-c2ccccc2)c1C(=O)N(C)Cc1cc(C(F)(F)F)cc(C(F)(F)F)c1` [Example 270, N-[3,5-Bis(trifluoromethyl)benzyl]-2-methoxy-N-methyl-4-phenyl-3-quinolinecarboxamide], 10 nM; under `Cc1cccc(C)c1-c1c(C(=O)NCc2cc(C(F)(F)F)cc(C(F)(F)F)c2)n(C)c(=O)c2ccccc12` [Example 122, N-[3,5-Bis(trifluoromethyl)benzyl]-1,2-dihydro-2-methyl-4-(2,6-dimethylphenyl)-1-oxo-3-isoquinolinecarboxamide], 82 nM.
Consider `CNc1nc2ccccc2c(-c2ccccc2)c1C(=O)N(C)Cc1cc(C(F)(F)F)cc(C(F)(F)F)c1` [Example 271, N-[3,5-Bis(trifluoromethyl)benzyl]-N-methyl-2-methylamino-4-phenyl-3-quinolinecarboxamide], for which the IC50 worked out at 1.9 nM.
Turning to `O=C1c2c(-c3ccccc3)c3ccccc3c(=O)n2CCN1Cc1cc(C(F)(F)F)cc(C(F)(F)F)c1` [Example 240, N-[3,5-Bis(trifluoromethyl)benzyl]-1,2,3,4-tetrahydro-1,6-dioxo-11-phenyl-6H-pyrazino[1,2-b]isoquinoline], the IC50 was 2 nM.
Under `CN(Cc1cc(C(F)(F)F)cc(C(F)(F)F)c1)C(=O)c1oc(=O)c2ccccc2c1-c1ccc(F)cc1` [Example 246, N-[3,5-Bis(trifluoromethyl)benzyl]-4-(4-fluorophenyl)-N-methyl-1-oxo-1H-2-benzopyran-3-carboxamide] stands 0.61 nM; under `Cc1ccc2c(=O)oc(C(=O)N(C)Cc3cc(C(F)(F)F)cc(C(F)(F)F)c3)c(-c3ccccc3)c2c1` [Example 247], 5.2 nM; under `Cc1cccc(C)c1-c1c(C(=O)N(C)Cc2cc(C(F)(F)F)cc(C(F)(F)F)c2)n(C)c(=O)c2ccccc12` [Example 123, N-[3,5-Bis(trifluoromethyl)benzyl]-1,2-dihydro-4-(2,6-dimethylphenyl)-N,2-dimethyl-1-oxo-3-isoquinolinecarboxamide], 46 nM.
For the compound `COc1ccccc1CCOCc1c(-c2ccccc2)c2cc(C)c(C)cc2c(=O)n1C` [Example 207, 1,2-Dihydro-2,6,7-trimethyl-1-oxo-4-phenyl-3-isoquinolinemethyl 2-(2-methoxyphenyl)ethyl ether], the IC50 was found to be 110 nM.
As to `Cn1c(C(=O)NCc2cc(C(F)(F)F)cc(C(F)(F)F)c2)c(-c2ccccc2)c2cc(Cl)ccc2c1=O` [Example 173, N-[3,5-Bis(trifluoromethyl)benzyl]-6-chloro-1,2-dihydro-2-methyl-1-oxo-4-phenyl-3-isoquinolinecarboxamide], the IC50 worked out at 24 nM.
Turning to `CN(C)CCn1c(C(=O)N(C)Cc2cc(C(F)(F)F)cc(C(F)(F)F)c2)c(-c2ccccc2)c2ccccc2c1=O` [Example 184, N-[3,5-Bis(trifluoromethyl)benzyl]-2-[2-(N,N-dimethylamino)ethyl]-1,2-dihydro-N-methyl-1-oxo-4-phenyl-3-isoquinolinecarboxamide hydrochloride], the IC50 was found to be 17 nM.
`COc1ccccc1CN(C)C(=O)c1c(-c2ccccc2)c2cc(C)c(C)cc2c(=O)n1C` [Example 111, 1,2-Dihydro-N-(2-methoxybenzyl)-N,2,6,7-tetramethyl-1-oxo-4-phenyl-3-isoquinolinecarboxamide]: the IC50 came out at 98 nM. This IC50 is about 5.8-fold higher than that of the compound before.
`CN(Cc1cc(C(F)(F)F)cc(C(F)(F)F)c1)C(=O)c1c(-c2ccccc2)c2ccccc2n(C)c1=O` [Example 260, N-[3,5-Bis(trifluoromethyl)benzyl]-1,2-dihydro-N,1-dimethyl-2-oxo-4-phenyl-3-quinolinecarboxamide]: the IC50 is 1 nM.
As to `COc1cc(CNCc2c(-c3ccccc3)c3ccccc3c(=O)n2C)cc(OC)c1OC` [Example 205, 1,2-Dihydro-2-methyl-1-oxo-4-phenyl-N-(3,4,5-trimethoxybenzyl)-3-isoquinolinemethylamine], the IC50 is 22 nM.
Under `CN(Cc1cc(C(F)(F)F)cc(C(F)(F)F)c1)C(=O)c1c(-c2ccccc2C(F)(F)F)c2ccccc2oc1=O` [Example 256, N-[3,5-Bis(trifluoromethyl)benzyl]-N-methyl-2-oxo-4-(2trifluoromethylphenyl)-2H-1-benzopyran-3-carboxamide] stands 4.4 nM; under `Cc1cc(C)cc(CNC2CCCn3c2c(-c2ccccc2)c2cc(C)c(C)cc2c3=O)c1` (stereo not drawn) [Example 233, 1-(3,5-Dimethylbenzylamino)-1,2,3,4-tetrahydro-8,9-dimethyl-6-oxo-11-phenyl-6H-benzo[b]quinolizine hydrochloride], 44 nM.
With `COc1nc(C(=O)N(C)Cc2cc(C(F)(F)F)cc(C(F)(F)F)c2)c(-c2ccccc2)c2ccccc12` [Example 277, N-[3,5-Bis(trifluoromethyl)benzyl]-1-methoxy-N-methyl-4-phenyl-3-isoquinolinecarboxamide] the figure was 54 nM; with `CN(Cc1cc(C(F)(F)F)cc(C(F)(F)F)c1)C(=O)c1c(-c2ccccc2)c2ccccc2c(=O)n1CC[N+](C)(C)C` [Example 282, N-[3,5-Bis(trifluoromethyl)benzyl]-1,2-dihydro-N-methyl-1-oxo-4-phenyl-2-[2-(N,N,N-trimethylammonium)ethyl]-3-isoquinolinecarboxamide], 22 nM.
The compound `COc1ccccc1-c1c(C(=O)NCc2cc(C(F)(F)F)cc(C(F)(F)F)c2)n(C)c(=O)c2ccccc12` [Example 158, N-[3,5-Bis(trifluoromethyl)benzyl]-1,2-dihydro-4-(2-methoxyphenyl)-2-methyl-1-oxo-3-isoquinolinecarboxamide] had an IC50 of 78 nM.
For `Cn1c(C(=O)NCc2cc(C(F)(F)F)cc(C(F)(F)F)c2)c(-c2ccc(F)cc2)c2ccccc2c1=O` [Example 165, N-[3,5-Bis(trifluoromethyl)benzyl]-4-(4-fluorophenyl)-1,2-dihydro-2-methyl-1-oxo-3-isoquinolinecarboxamide], the IC50 stood at 24 nM.
`Cn1c(COCc2cc(C(F)(F)F)cc(C(F)(F)F)c2)c(-c2ccccc2)c2ccccc2c1=O` [Example 211, 3,5-Bis(trifluoromethyl)benzyl 1,2-dihydro-2-methyl-1-oxo-4-phenyl-3-isoquinolinemethyl ether] displayed an IC50 of 23 nM.
